# In patent US20240124417A1, “COMPOUNDS USEFUL AS IMMUNOMODULATORS” (Bristol-Myers Squibb Company, priority 2019, published 2024):
# Target: T1, PD-1/PD-L1 (Homo sapiens, UniProt Q9NZQ7)
# T1 construct: TVMV protease site linker (C); made in house; host or cells: HEK293T cells
# Assay: PD-1/PD-L1 Homogenous Time-Resolved Fluorescence (HTRF) binding assay
# Settings: PD-L1-His 10 nM, PD-1-Ig 20 nM
# Method in brief: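 Inhibitors pre-incubated 15 min with PD-L1-His extracellular domain (10 nM final) in dPBS with 0.1% BSA and 0.05% Tween-20, then PD-1-Ig (20 nM final) added for a further 15 min. Read-out by HTRF with europium cryptate anti-Ig (1 nM) and APC anti-His (20 nM). Related pairs: PD-1-Ig/PD-L2-His (20/5 nM), CD80-His/PD-L1-Ig (100/10 nM).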
# T1 sequence (Q9NZQ7 18-239): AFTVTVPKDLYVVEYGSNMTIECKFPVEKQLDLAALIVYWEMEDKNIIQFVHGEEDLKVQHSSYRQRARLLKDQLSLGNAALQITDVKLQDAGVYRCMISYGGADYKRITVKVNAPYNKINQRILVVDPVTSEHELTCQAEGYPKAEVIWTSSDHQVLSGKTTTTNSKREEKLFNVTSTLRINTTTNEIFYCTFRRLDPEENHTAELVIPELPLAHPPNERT
row,Structure (SMILES),IC50 [nM]
1,"Cc1c(COc2cc(OCc3cncc(C#N)c3)c(CNCc3ccncc3)cc2Cl)cccc1-c1cccc(OCCCN2CC[C@@H](O)C2)c1C [Example 2019, (R)-5-((4-chloro-5-((3′-(3-(3-hydroxypyrrolidin-1-yl)propoxy)-2,2′-dimethyl-[1,1′-biphenyl]-3-yl)methoxy)-2-(((pyridin-4-ylmethyl)amino)methyl)phenoxy)methyl)nicotinonitrile]",4.1
2,"Cc1nc2c(s1)CN(Cc1cc(Cl)c(OCc3cccc(-c4cccc(OCC5CCCN(C)C5)c4Cl)c3C)cc1OCc1cncc(C#N)c1)CC2 (stereo not shown) [Example 2600, 5-((4-chloro-5-((2′-chloro-2-methyl-3′-((1-methylpiperidin-3-yl)methoxy)-[1,1′-biphenyl]-3-yl)methoxy)-2-((2-methyl-6,7-dihydrothiazolo[5,4-c]pyridin-5(4H)-yl)methyl)phenoxy)methyl)nicotinonitrile]",7.2
3,"Cc1c(COc2cc(OCc3cncc(C#N)c3)c(CN(C)Cc3ccncc3)cc2Cl)cccc1-c1cccc(OCCCN2CC[C@@H](O)C2)c1C [Example 2029, (R)-5-((4-chloro-5-((3′-(3-(3-hydroxypyrrolidin-1-yl)propoxy)-2,2′-dimethyl-[1,1′-biphenyl]-3-yl)methoxy)-2-((methyl(pyridin-4-ylmethyl)amino)methyl)phenoxy)methyl)nicotinonitrile]",4.1
4,"COCc1noc(CN(C)Cc2cc(Cl)c(OCc3cccc(-c4cccc(OCCCN5CC[C@@H](O)C5)c4C)c3C)cc2OCc2cncc(C#N)c2)n1 [Example 2560, (R)-5-((4-chloro-5-((3′-(3-(3-hydroxypyrrolidin-1-yl)propoxy)-2,2′-dimethyl-[1,1′-biphenyl]-3-yl)methoxy)-2-((((3-(methoxymethyl)-1,2,4-oxadiazol-5-yl)methyl)(methyl)amino)methyl)phenoxy)methyl)nicotinonitrile]",4.5
5,"Cc1c(COc2cc(OCc3cncc(C#N)c3)c(CN3CCc4cn[nH]c4C3)cc2Cl)cccc1-c1cccc(OCCCN2CC[C@@H](O)C2)c1C [Example 2569, (R)-5-((4-chloro-5-((3′-(3-(3-hydroxypyrrolidin-1-yl)propoxy)-2,2′-dimethyl-[1,1′-biphenyl]-3-yl)methoxy)-2-((1,4,5,7-tetrahydro-6H-pyrazolo[3,4-c]pyridin-6-yl)methyl)phenoxy)methyl)nicotinonitrile]",5.5

# The next molecules have a lower IC50 than those just listed; values first:
row,IC50 [nM],Structure (SMILES)
1,3.8,"Cc1c(COc2cc(OCc3cncc(C#N)c3)c(CN3CCc4[nH]cnc4C3)cc2Cl)cccc1-c1cccc(OCCCN2CC[C@@H](O)C2)c1C [Example 2515, (R)-5-((4-chloro-5-((3′-(3-(3-hydroxypyrrolidin-1-yl)propoxy)-2,2′-dimethyl-[1,1′-biphenyl]-3-yl)methoxy)-2-((1,4,6,7-tetrahydro-5H-imidazo[4,5-c]pyridin-5-yl)methyl)phenoxy)methyl)nicotinonitrile]"
2,3.1,"Cc1c(COc2cc(OCc3cncc(C#N)c3)c(CNCc3nnc4ccc(C(F)(F)F)cn34)cc2Cl)cccc1-c1cccc(OCC2CCCN(C)C2)c1Cl (stereo not shown) [Example 2619, 5-((4-chloro-5-((2′-chloro-2-methyl-3′-((1-methylpiperidin-3-yl)methoxy)-[1,1′-biphenyl]-3-yl)methoxy)-2-((((6-(trifluoromethyl)-[1,2,4]triazolo[4,3-a]pyridin-3-yl)methyl)amino)methyl)phenoxy)methyl)nicotinonitrile]"
3,2.3,"CC(=O)NC1CCN(CCCOc2cccc(-c3cccc(COc4cc(OCc5cncc(C#N)c5)c(CN(C)C(C)c5nnn[nH]5)cc4Cl)c3C)c2C)CC1 (stereo not shown) [Example 1040, N-(1-(3-((3′-((4-(((1-(1H-Tetrazol-5-yl)ethyl)(methyl)amino)methyl)-2-chloro-5-((5-cyanopyridin-3-yl)methoxy)phenoxy)methyl)-2,2′-dimethyl-[1,1′-biphenyl]-3-yl)oxy)-propyl)piperidin-4-yl)acetamide]"
4,2.1,"Cc1c(COc2cc(OCc3cncc(C#N)c3)c(CN3CCC(c4nnn[nH]4)C3)cc2Cl)cccc1-c1cccc(OCCCNC[C@H](O)CO)c1Cl (stereo partly drawn) [Example 1033, 5-((2-((3-(1H-Tetrazol-5-yl)pyrrolidin-1-yl)methyl)-4-chloro-5-((2′-chloro-3′-(3-(((S)-2,3-dihydroxypropyl)amino)propoxy)-2-methyl-[1,1′-biphenyl]-3-yl)methoxy)phenoxy)-methyl)nicotinonitrile]"
5,2,"COCc1noc(CNCc2cc(Cl)c(OCc3cccc(-c4cccc(OCC5CCCN(C)C5)c4Cl)c3C)cc2OCc2cncc(C#N)c2)n1 (stereo not shown) [Example 2595, 5-((4-chloro-5-((2′-chloro-2-methyl-3′-((1-methylpiperidin-3-yl)methoxy)-[1,1′-biphenyl]-3-yl)methoxy)-2-((((3-(methoxymethyl)-1,2,4-oxadiazol-5-yl)methyl)amino)methyl)phenoxy)methyl)nicotinonitrile]"
6,1.7,"Cc1c(COc2cc(OCc3cncnc3)c(CNCc3ncc[nH]3)cc2Cl)cccc1-c1cccc(OCCCN2CC[C@@H](O)C2)c1C [Example 2050, (R)-1-(3-((3′-((4-((((1H-imidazol-2-yl)methyl)amino)methyl)-2-chloro-5-(pyrimidin-5-ylmethoxy)phenoxy)methyl)-2,2′-dimethyl-[1,1′-biphenyl]-3-yl)oxy)propyl)pyrrolidin-3-ol]"
7,1.1,"Cc1n[nH]c(C)c1C(NCc1cc(Cl)c(OCc2cccc(-c3cccc(OCC4CCCN(C)C4)c3Cl)c2C)cc1OCc1cncc(C#N)c1)C(=O)O (stereo not shown) [Example 1027, 2-((5-Chloro-4-((2′-chloro-2-methyl-3′-((1-methylpiperidin-3-yl)methoxy)-[1,1′-biphenyl]-3-yl)methoxy)-2-((5-cyanopyridin-3-yl)methoxy)benzyl)amino)-2-(3,5-dimethyl-1H-pyrazol-4-yl)acetic acid]"
8,0.2,"Cc1c(COc2cc(OCc3cncc(C#N)c3)c(CN(C)Cc3cc[nH]n3)cc2Cl)cccc1-c1cccc(OCCCN2CCC(O)(CO)CC2)c1Cl [Example 2016, 5-((2-((((1H-pyrazol-3-yl)methyl)(methyl)amino)methyl)-4-chloro-5-((2′-chloro-3′-(3-(4-hydroxy-4-(hydroxymethyl)piperidin-1-yl)propoxy)-2-methyl-[1,1′-biphenyl]-3-yl)methoxy)phenoxy)methyl)nicotinonitrile]"
